According to ChEMBL document CHEMBL1201862, “PubChem BioAssay data set” (2004):
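Interpolation was linear, between the two tested concentrations surrounding the appropriate level; five concentrations were tested over 48 hours in 96-well plates. GI50 = concentration required for 50% inhibition of growth.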 The source made the active and inactive calls. Cut-off read from the data, not from the text of the source: active = GI50 up to about 1.1 µM and inactive = higher.

Tests used:
Assay in all cases: NCI-60 cell line screen, 48 h
T47D = test system: T47D
HCT-116 = test system: HCT-116
OVCAR-8 = test system: OVCAR-8
PC-3 = test system: PC-3
SK-OV-3 = test system: SK-OV-3
UO-31 = test system: UO-31
NCI-H23 = test system: NCI-H23
786-0 = test system: 786-0
SNB-19 = test system: SNB-19
SR = test system: SR
NCI/ADR-RES = test system: NCI/ADR-RES
Hs-578T = test system: Hs-578T
OVCAR-3 = test system: OVCAR-3
NCI-H460 = test system: NCI-H460
NCI-H226 = test system: NCI-H226
SF-295 = test system: SF-295
UACC-62 = test system: UACC-62
SK-MEL-28 = test system: SK-MEL-28
HT-29 = test system: HT-29

Structure (SMILES) | GI50 (T47D) | GI50 (HCT-116) | GI50 (OVCAR-8) | GI50 (PC-3) | GI50 (SK-OV-3) | GI50 (UO-31) | GI50 (NCI-H23) | GI50 (786-0) | GI50 (SNB-19) | GI50 (SR) | GI50 (NCI/ADR-RES) | GI50 (Hs-578T) | GI50 (OVCAR-3) | GI50 (NCI-H460) | GI50 (NCI-H226) | GI50 (SF-295) | GI50 (UACC-62) | GI50 (SK-MEL-28) | GI50 (HT-29)
NC(=O)NOCC1NC(=O)NC1=O (stereo unspecified) | > 100 µM (inactive) | > 100 µM (inactive) | > 100 µM (inactive) | > 100 µM (inactive) | > 100 µM (inactive) | > 100 µM (inactive) | > 100 µM (inactive) | > 100 µM (inactive) | > 100 µM (inactive) | > 100 µM (inactive) | > 100 µM (inactive) | > 100 µM (inactive) | > 100 µM (inactive) | > 100 µM (inactive) | > 100 µM (inactive) | > 100 µM (inactive) | > 100 µM (inactive) | > 100 µM (inactive) | > 100 µM (inactive)
CN(C)c1ccc(C(Cc2ccccc2)C2NC(=S)NC2=O)cc1 (stereo unspecified) | > 100 µM (inactive) | > 100 µM (inactive) | > 100 µM (inactive) | > 100 µM (inactive) | 76.9 µM (inactive) | > 100 µM (inactive) | > 100 µM (inactive) | > 100 µM (inactive) | > 100 µM (inactive) | 2.17 µM (inactive) | > 100 µM (inactive) | 91.8 µM (inactive) | > 100 µM (inactive) | 99.8 µM (inactive) | > 100 µM (inactive) | > 95.7 µM (inactive) | 67 µM (inactive) | > 100 µM (inactive) | > 83.6 µM (inactive)
C#C[C@]1(O)[C@@H](CO)O[C@@H](n2ccc(N)nc2=O)[C@@H]1O | < 0.015 µM (active) | < 0.0435 µM (active) | < 0.0121 µM (active) | 0.0352 µM (active) | 0.0791 µM (active) | 0.0119 µM (active) | 0.0902 µM (active) | < 0.0325 µM (active) | 0.0706 µM (active) | < 0.01 µM (active) | < 0.0317 µM (active) | 0.108 µM (active) | 0.132 µM (active) | < 0.01 µM (active) | 0.0308 µM (active) | < 0.0334 µM (active) | 0.0352 µM (active) | 0.0728 µM (active) | < 0.0149 µM (active)
COC(=O)[C@@H]1C=C[C@H](OC2OC(COC(C)=O)C(OC(C)=O)C(OC(C)=O)C2OC(C)=O)n2c(=O)c3ccccc3c(=O)n21 (stereo partly specified) | 4.7 µM (inactive) | 10.9 µM (inactive) | 16.5 µM (inactive) | 6.62 µM (inactive) | 14.6 µM (inactive) | 14.4 µM (inactive) | 18.6 µM (inactive) | 16.1 µM (inactive) | 19.4 µM (inactive) | 4.82 µM (inactive) | 19.8 µM (inactive) | 27.7 µM (inactive) | 10.4 µM (inactive) | 12.3 µM (inactive) | 19.7 µM (inactive) | 18.8 µM (inactive) | 9.93 µM (inactive) | 13.2 µM (inactive) | 7.21 µM (inactive)
Cc1cc(C)nc(NS(=O)(=O)c2ccc(NNc3c4ccccc4nc4c(C(=O)Nc5ccc(S(N)(=O)=O)cc5)cccc34)cc2)n1 | 4.23 µM (inactive) | 28.2 µM (inactive) | 34.4 µM (inactive) | 18.6 µM (inactive) | 47.1 µM (inactive) | 45.7 µM (inactive) | 21.2 µM (inactive) | 66.5 µM (inactive) | 27.8 µM (inactive) | 12.8 µM (inactive) | > 100 µM (inactive) | 64.1 µM (inactive) | 25.9 µM (inactive) | 37.6 µM (inactive) | 32 µM (inactive) | 54 µM (inactive) | 27.7 µM (inactive) | 25.1 µM (inactive) | 39.7 µM (inactive)
CC1=NN(c2ccccc2)C(=O)/C1=C\c1c(C)[nH]n(-c2ccccc2)c1=O | 36.1 µM (inactive) | > 100 µM (inactive) | > 100 µM (inactive) | 77.4 µM (inactive) | > 100 µM (inactive) | > 100 µM (inactive) | > 100 µM (inactive) | > 100 µM (inactive) | > 100 µM (inactive) | > 100 µM (inactive) | > 100 µM (inactive) | > 100 µM (inactive) | 54.5 µM (inactive) | > 100 µM (inactive) | > 100 µM (inactive) | > 100 µM (inactive) | > 100 µM (inactive) | > 100 µM (inactive) | 81.1 µM (inactive)
O=c1c2cc([N+](=O)[O-])ccc2n2n1Cc1ccccc1C2 | 65.5 µM (inactive) | > 100 µM (inactive) | > 100 µM (inactive) | 32.4 µM (inactive) | > 100 µM (inactive) | 53.3 µM (inactive) | > 100 µM (inactive) | > 100 µM (inactive) | > 100 µM (inactive) | 87.3 µM (inactive) | 73.6 µM (inactive) | 43.4 µM (inactive) | > 100 µM (inactive) | 40.6 µM (inactive) | > 100 µM (inactive) | > 100 µM (inactive) | > 100 µM (inactive) | > 100 µM (inactive) | > 100 µM (inactive)
O=C1OC(C2=CC(=O)c3ccccc3C2=O)C(Cl)=C1Cl (stereo unspecified) | 29.1 µM (inactive) | 32.4 µM (inactive) | 13.7 µM (inactive) | 27.3 µM (inactive) | 79.6 µM (inactive) | 13.7 µM (inactive) | 24.4 µM (inactive) | 17.9 µM (inactive) | 56.1 µM (inactive) | 24 µM (inactive) | 31.5 µM (inactive) | 54.7 µM (inactive) | 33.1 µM (inactive) | 56.8 µM (inactive) | 27.2 µM (inactive) | 86.5 µM (inactive) | 17.4 µM (inactive) | 41 µM (inactive) | 42 µM (inactive)
Cc1cc(C)c(P2C(=C(O[Si](C(C)C)(C(C)C)C(C)C)C(C)(C)C)C2(c2ccccc2)c2ccccc2)c(C)c1 (stereo unspecified) | > 100 µM (inactive) | 52.8 µM (inactive) | > 100 µM (inactive) | 57.9 µM (inactive) | > 100 µM (inactive) | 76.9 µM (inactive) | > 100 µM (inactive) | > 100 µM (inactive) | > 100 µM (inactive) | 86.3 µM (inactive) | > 100 µM (inactive) | > 100 µM (inactive) | > 100 µM (inactive) | > 100 µM (inactive) | > 100 µM (inactive) | > 100 µM (inactive) | > 100 µM (inactive) | > 100 µM (inactive) | > 100 µM (inactive)
c1ccc(Nc2nn3c(CCCCCCCCc4nnc5sc(Nc6ccccc6)nn45)nnc3s2)cc1 | 13.2 µM (inactive) | 24.3 µM (inactive) | 22 µM (inactive) | 31 µM (inactive) | 32.1 µM (inactive) | 22.1 µM (inactive) | 21.3 µM (inactive) | 23.4 µM (inactive) | 26 µM (inactive) | 13.3 µM (inactive) | 26.6 µM (inactive) | 31.2 µM (inactive) | 23.6 µM (inactive) | 32.4 µM (inactive) | 40.9 µM (inactive) | 24.4 µM (inactive) | 34.6 µM (inactive) | 27.6 µM (inactive) | 21.9 µM (inactive)
CCc1nc(N)nc(N)c1-c1ccc(Cc2ccccc2)c([N+](=O)[O-])c1 | 6.95 µM (inactive) | < 0.01 µM (active) | < 0.0153 µM (active) | < 0.0353 µM (active) | 7.87 µM (inactive) | 0.124 µM (active) | 0.0171 µM (active) | < 0.01 µM (active) | 1.51 µM (inactive) | < 0.01 µM (active) | 0.0475 µM (active) | 12.3 µM (inactive) | 0.873 µM (active) | < 0.01 µM (active) | 27.6 µM (inactive) | 0.0116 µM (active) | < 0.0111 µM (active) | > 39.5 µM (inactive) | < 0.01 µM (active)
CC(=O)NC(CS/N=N/c1[nH]cnc1C(N)=O)C(=O)O (stereo unspecified) | > 24.1 µM (inactive) | 5.5 µM (inactive) | 2.06 µM (inactive) | 6.38 µM (inactive) | 2.15 µM (inactive) | 2.82 µM (inactive) | 38.9 µM (inactive) | 13 µM (inactive) | > 100 µM (inactive) | < 0.01 µM (active) | 3.04 µM (inactive) | 16.2 µM (inactive) | 10 µM (inactive) | 5.57 µM (inactive) | 2.51 µM (inactive) | 4.16 µM (inactive) | 4.21 µM (inactive) | > 100 µM (inactive) | > 46.9 µM (inactive)
COc1cc(S(=O)(=O)Nc2nc(-c3ccc(N4C(=O)C(CC(=O)O)SC4c4ccccc4O)cc3)cs2)ccc1Cl (stereo unspecified) | 28.1 µM (inactive) | 46.3 µM (inactive) | 62.8 µM (inactive) | 59.4 µM (inactive) | 62.4 µM (inactive) | > 100 µM (inactive) | 22.1 µM (inactive) | > 100 µM (inactive) | > 100 µM (inactive) | 99.8 µM (inactive) | > 100 µM (inactive) | > 100 µM (inactive) | 55.7 µM (inactive) | 82.4 µM (inactive) | 61.4 µM (inactive) | 51.2 µM (inactive) | 72.9 µM (inactive) | > 100 µM (inactive) | 90.8 µM (inactive)
C=CCC1CC(n2cc(C)c(=O)[nH]c2=O)OC1CO[Si](C)(C)C(C)(C)C (stereo unspecified) | 10.4 µM (inactive) | 11.7 µM (inactive) | 15.1 µM (inactive) | 11.4 µM (inactive) | 14 µM (inactive) | 11.4 µM (inactive) | 12.5 µM (inactive) | 15.2 µM (inactive) | 16.2 µM (inactive) | 0.0925 µM (active) | 15.1 µM (inactive) | 12.6 µM (inactive) | 15.9 µM (inactive) | 16.5 µM (inactive) | 13.2 µM (inactive) | 17.6 µM (inactive) | 17.2 µM (inactive) | 16.3 µM (inactive) | 15.9 µM (inactive)
